Assay results from US11584713B2, “25-hydroxycholecalciferol monohydrate crystal, preparation method therefor and microemulsion using same” (SHANDONG HAINENG BIOENGINEERING CO., LTD., priority 2018, dated 2023).

Legend:
[1] = Stability test, left open at 25° C., content of 25-hydroxycholecalciferol by HPLC; assay type: physicochemical; details: for Content of 25-hydroxycholecalciferol: left open at 25° C.
Protocol: 6. Stability Test the 25-hydroxycholecalciferol monohydrate crystal prepared in the present embodiment was left open at 25° C., and a content of 25-hydroxycholecalciferol contained therein was tested after one month, three months and six months respectively, and meanwhile, 25-hydroxycholecalciferol was used as a control example, and the results were shown in Table 2. The content of 25-hydroxycholecalciferol was measured by the following method: taking a sample to prepare a solution of about 10 μg/mL, injecting 20 μL for a HPLC analysis, and calculating the content thereof according to an external standard method. Test conditions of the HPLC were as follows: chromatographic column: C18 column; internal diameter: 4.6 mm; length: 150 mm, particle size: 5 μm; detection wavelength: 265 nm; temperature of column: 30° C.; flow rate: 1.5 mL/min (which may be adjusted according to desired retention time and a degree of separation of 25-hydroxycholecalciferol and a 25-hydroxycholecalciferol precursor); injection volume: 20 uL; and recording time: 2 times the retention time of main peak.

[2] = cited from earlier work

SMILES | Loss of 25-hydroxycholecalciferol (in words) ([1]; after six months of being left open at 25° C.) | Content of 25-hydroxycholecalciferol ([1]; 0 day) | Content of 25-hydroxycholecalciferol ([1]; one month) | Content of 25-hydroxycholecalciferol ([1]; six months) | Content of 25-hydroxycholecalciferol ([1]; three months) | solubility in diethyl ether ([2]; diethyl ether) | solubility in dimethyl sulfoxide ([2]; dimethyl sulfoxide) | solubility in ethanol ([2]; ethanol) | solubility in methanol ([2]; methanol) | solubility in water ([2]; water)
C=C1CC[C@H](O)C/C1=C/C=C1\CCC[C@]2(C)[C@@H]([C@H](C)CCCC(C)(C)O)CC[C@@H]12 [25-hydroxycholecalciferol monohydrate] | almost no loss | 99.60% | 99.05% | 96.59% | 98.46% |  |  |  |  | 
C=C1CC[C@H](O)C/C1=C/C=C1\CCC[C@]2(C)[C@@H]([C@H](C)CCCC(C)(C)O)CC[C@@H]12 [25-hydroxycholecalciferol] |  | 99.23% | 65.03% | 29.61% | 47.65% | slightly soluble | easily soluble | easily soluble | easily soluble | almost insoluble
